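Each compound was tested at five concentrations against cells in 96-well plates for 48 hours. At the GI50, growth is halved. TGI denotes the concentration required for complete inhibition of growth.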
Key:
Test in all cases: NCI-60 cell line screen, 48 h
[1] = system: A498 renal
[2] = system: CAKI-1 renal
[3] = system: DU-145 prostate
[4] = system: HL-60(TB) leukemia
[5] = system: MCF7 breast
[6] = system: OVCAR-3 ovarian
[7] = system: OVCAR-4 ovarian
[8] = system: PC-3 prostate
[9] = system: SR leukemia
[10] = system: UACC-62 melanoma

With `O=C(Nc1ccccc1)OC1OC(COC(=O)c2ccccc2)C(OC(=O)c2ccccc2)C1OS(=O)(=O)c1ccc([N+](=O)[O-])cc1` (stereo not given) the TGI [1] was > 100 µM, the TGI [2] was > 100 µM and the TGI [3] was > 100 µM. For the same compound, the TGI [4] was > 100 µM, the TGI [5] was > 100 µM and the TGI [6] was > 100 µM. The TGI [7] was > 100 µM, the TGI [8] was > 100 µM and the TGI [9] was > 100 µM. For the same compound, the TGI [10] was > 100 µM.

Work on `CCC(C)C1=C(O)[N+]2([O-])Oc3ccc(C4=C(O)C(=O)C(c5ccc(O)cc5)=C(O)C4=O)cc3OC2(C(C)CC)C(=O)N1O` (stereo not given) yielded a GI50 [1] of 5.24 µM, a TGI [1] of 41.9 µM and a GI50 [2] of 3.77 µM. For the same compound, the TGI [2] was 30.4 µM, the GI50 [3] was 30.9 µM and the TGI [3] was > 100 µM. It also gave a GI50 [4] of 14.2 µM, a TGI [4] of 86.7 µM and a GI50 [5] of 4.25 µM. For the same compound, the TGI [5] was > 100 µM, the GI50 [6] was 5.39 µM and the TGI [6] was 49.1 µM. For the same compound, the GI50 [7] was > 100 µM, the TGI [7] was > 100 µM and the GI50 [8] was 6.14 µM. For the same compound, the TGI [8] was > 100 µM, the GI50 [9] was 1.25 µM and the TGI [9] was 7.81 µM. It also gave a GI50 [10] of 5.68 µM and a TGI [10] of 65.1 µM.

In the case of `CNC(=O)c1c(F)cccc1Nc1nc(Nc2cc3c(cc2OC)CCN3C(=O)CN(C)C)nc2[nH]ccc12`, the GI50 [1] was > 39.6 µM, the TGI [1] was > 58.7 µM and the GI50 [2] was 16.1 µM. For the same compound, the TGI [2] was 45.7 µM, the GI50 [3] was 7.37 µM and the TGI [3] was 24.9 µM. The GI50 [4] was 0.364 µM, the TGI [4] was 18.2 µM and the GI50 [5] was 0.359 µM. For the same compound, the TGI [5] was 2.88 µM, the GI50 [6] was 15 µM and the TGI [6] was 30.8 µM. It also gave a GI50 [7] of 1.87 µM, a TGI [7] of 3.99 µM and a GI50 [8] of 6.25 µM. For the same compound, the TGI [8] was 39.9 µM, the GI50 [9] was 0.0203 µM and the TGI [9] was > 100 µM. It also gave a GI50 [10] of 4.66 µM and a TGI [10] of 9.79 µM.

`O=C(/C=C/c1ccccn1)c1ccc(OCc2nnc(-c3ccc(Cl)cc3)o2)cc1` showed a GI50 [1] of 4.5 µM, a TGI [1] of 17.2 µM and a GI50 [2] of 1.69 µM. It also gave a TGI [2] of 3.24 µM, a GI50 [3] of 1.62 µM and a TGI [3] of 3.02 µM. It also gave a GI50 [4] of 2.46 µM, a TGI [4] of 7.68 µM and a GI50 [5] of 0.378 µM. It also gave a TGI [5] of 1.68 µM, a GI50 [6] of 1.73 µM and a TGI [6] of 3.25 µM. The GI50 [7] was 3.42 µM, the TGI [7] was 12.4 µM and the GI50 [8] was 1.87 µM. It also gave a TGI [8] of 3.9 µM, a GI50 [9] of 0.291 µM and a TGI [9] of 1.93 µM. It also gave a GI50 [10] of 1.83 µM and a TGI [10] of 3.55 µM.

Compound `COc1ccc(S(=O)(=O)Nc2c(/C=C\c3cc(OC)c(OC)c(OC)c3)ccc(OC)c2O)cc1` has a GI50 [1] of 0.0188 µM, a TGI [1] of 0.085 µM and a GI50 [2] of 0.0516 µM. For the same compound, the TGI [2] was 79.8 µM, the GI50 [3] was 0.0425 µM and the TGI [3] was > 100 µM. The GI50 [4] was 0.0235 µM, the TGI [4] was 0.0779 µM and the GI50 [5] was 0.038 µM. For the same compound, the TGI [5] was > 100 µM, the GI50 [6] was 0.0338 µM and the TGI [6] was 1.21 µM. For the same compound, the GI50 [7] was 0.0763 µM, the TGI [7] was > 100 µM and the GI50 [8] was 0.0408 µM. The TGI [8] was > 100 µM, the GI50 [9] was 0.0319 µM and the TGI [9] was 16.2 µM. The GI50 [10] was 0.0389 µM and the TGI [10] was > 100 µM.

For `COS(C)(=O)=O`, the TGI [1] was > 2 µM, the TGI [2] was > 2 µM and the TGI [3] was > 2 µM. For the same compound, the TGI [4] was > 2 µM, the TGI [5] was > 2 µM and the TGI [6] was > 2 µM. For the same compound, the TGI [7] was > 2 µM, the TGI [8] was > 2 µM and the TGI [9] was > 2 µM. The TGI [10] was > 2 µM.

`CCOc1ccc(C(C[N+](=O)[O-])Sc2ccccc2N)cc1` (stereo not given) showed a GI50 [1] of 12.5 µM, a TGI [1] of 25 µM and a GI50 [2] of 12.9 µM. It also gave a TGI [2] of 25.6 µM, a GI50 [3] of 4.17 µM and a TGI [3] of 15 µM. It also gave a GI50 [4] of 2.27 µM, a TGI [4] of 6.59 µM and a GI50 [5] of 1.71 µM. It also gave a TGI [5] of 6.04 µM, a GI50 [6] of 2.92 µM and a TGI [6] of 12 µM. It also gave a GI50 [7] of 13 µM, a TGI [7] of 26 µM and a GI50 [8] of 4.02 µM. For the same compound, the TGI [8] was 17.3 µM, the GI50 [9] was 2.3 µM and the TGI [9] was 5.17 µM. It also gave a GI50 [10] of 10 µM and a TGI [10] of 21.6 µM.

`COc1cc2c(c(OC)c1OC)-c1ccc(SC)c(=O)cc1[C@@H](NC(=O)C(F)(F)F)CC2` was tested, and the TGI [1] was 1.86 µM, the TGI [2] was 10.3 µM and the TGI [3] was > 100 µM. The TGI [4] was 0.194 µM, the TGI [5] was > 82.2 µM and the TGI [6] was 1.3 µM. The TGI [7] was > 100 µM, the TGI [8] was > 100 µM and the TGI [9] was > 100 µM. The TGI [10] was > 100 µM.

With `O=C1Cc2cc(CCn3cncn3)c(Cl)cc2N1` the GI50 [1] was 32.5 µM, the TGI [1] was > 100 µM and the GI50 [2] was 8.33 µM. The TGI [2] was > 100 µM, the GI50 [3] was > 100 µM and the TGI [3] was > 100 µM. For the same compound, the GI50 [4] was > 100 µM, the TGI [4] was > 100 µM and the GI50 [5] was 4.02 µM. For the same compound, the TGI [5] was > 100 µM, the GI50 [6] was > 100 µM and the TGI [6] was > 100 µM. For the same compound, the GI50 [7] was > 100 µM, the TGI [7] was > 100 µM and the GI50 [8] was > 100 µM. The TGI [8] was > 100 µM, the GI50 [9] was 11.8 µM and the TGI [9] was > 100 µM. For the same compound, the GI50 [10] was 20.7 µM and the TGI [10] was > 100 µM.

In the case of `Clc1cccc(CNc2c3ccccc3nc3ccccc23)c1`, the GI50 [1] was 1.3 µM, the TGI [1] was 2.67 µM and the GI50 [2] was 1.67 µM. It also gave a TGI [2] of 4.82 µM, a GI50 [3] of 2.57 µM and a TGI [3] of 7.17 µM. For the same compound, the GI50 [4] was 1.9 µM, the TGI [4] was 4.35 µM and the GI50 [5] was 1.62 µM. For the same compound, the TGI [5] was 3.53 µM, the GI50 [6] was 2.1 µM and the TGI [6] was 4.56 µM. It also gave a GI50 [7] of 2.15 µM, a TGI [7] of 7.95 µM and a GI50 [8] of 1.64 µM. It also gave a TGI [8] of 4.65 µM, a GI50 [9] of 1.47 µM and a TGI [9] of 4.55 µM. It also gave a GI50 [10] of 1.87 µM and a TGI [10] of 3.98 µM.

Reference: PubChem BioAssay (NCI)
